Source: paper PMC10049354, “Anti-Inflammatory Effects and Photo- and Neuro-Protective Properties of BIO203, a New Amide Conjugate of Norbixin, in Development for the Treatment of Age-Related Macular Degeneration (AMD)” (International Journal of Molecular Sciences, 2023)
Where two headings read alike, the source gives them in different places.

Legend:
[1] = tested on: AP-1; experiment: AP-1 transactivation assay induced by A2E; format: cell-based, pig; details: compound 20 μM; A2E 20 μM
Description: (§1) Transactivation assays were performed as previously described. Briefly, RPE cells were plated in DMEM 2% FCS at a density of 6 × 10^4 cells/cm^2. The next day transfections using the Cignal Reporter Assay Kits for PPAR, RXR, AP-1, and NF-κB were performed with Lipofectamine and Plus Reagent in serum-free medium. Three hours after the transfection, A2E and/or BIO203, both at 20 μM, were added to the culture medium for 24 h. Luciferase activity was measured using the Dual-Luciferase Reporter Assay System and with a luminometer (Infinite M1000 from Tecan, Mannedorf, Switzerland). At least 3 independent transfections were performed in triplicate for each condition.

[2] = tested on: IL-6; experiment: IL-6 mRNA expression induced by A2E (quantitative RT-PCR); format: cell-based, pig
Description: (§2) RPE cells were obtained from pig eyes, as previously described. RPE cells were seeded on a 96-well plate at a density of 1.5 × 10^5 cells/cm^2 in DMEM 2% FCS. BIO201, BIO203, or its pure enantiomers were added in increasing concentrations to the culture medium 48 h before illumination. A2E was added to the medium at a final concentration of 30 μM, and 19 h later, blue-light illumination was performed for 50 min using a 96 blue-led device (Durand, St Clair de la Tour, France) emitting at 470 nm (1440 mcd, 8.6 mA). Just before illumination, the culture medium was replaced by a modified DMEM without any photosensitizer and with 2% FCS. Twenty-four hours after blue-light irradiation, all cell nuclei were stained with Hoechst 33342, and nuclei of dead cells with ethidium homodimer 2, fixed with paraformaldehyde (4% in PBS, 10 min) and 9 pictures per well were captured using a fluorescence microscope (Nikon TiE) equipped with a CoolSNAP HQ2 camera and driven by Metamorph Premier On-Line program. Quantification of live cells was performed using Metamorph Premier Off-Line and a homemade program by subtraction of dead cells from all cells. For cytokines mRNA analysis, RPE cells were seeded in 24-well plates and left untreated or treated with A2E or BIO203 alone or A2E plus BIO203. […]

[3] = tested on: VEGF; experiment: VEGF mRNA expression induced by A2E (quantitative RT-PCR); format: cell-based, pig; details: BIO203 20 mM (so in the source); A2E 20 μM; porcine RPE cells; p < 0.001
Description: as §2

[4] = tested on: IL-8; experiment: IL-8 mRNA expression induced by A2E (quantitative RT-PCR); format: cell-based, pig; details: BIO203 20 mM (so in the source); A2E 20 μM; porcine RPE cells; p < 0.001
Description: as §2

[5] = tested on: NF-κB; experiment: NF-κB transactivation assay induced by A2E; format: cell-based, pig; details: compound 20 μM; A2E 20 μM; p < 0.05
Description: as §1

[6] = tested on: RXR; experiment: RXR transactivation assay induced by A2E; format: cell-based, pig; details: compound 20 μM; A2E 20 μM; porcine RPE cells
Description: as §1

[7] = tested on: NF-κB; parameters: method as in PMID 34544906; details: cited from earlier work
[8] = tested on: RXR; parameters: method as in PMID 34544906; details: porcine RPE cells in vitro; cited from earlier work

Compound	inhibition of AP1 transactivation induced by A2E [1]	change of IL-6 mRNA expression induced by A2E ([2]; BIO203 20 mM (so in the source), A2E 20 μM, porcine RPE cells, p < 0.001) [%]	effect on IL-6 expression on its own (without A2E) ([2]; BIO203 alone, not statistically significant)	change of VEGF mRNA expression induced by A2E [3] [%]	change of IL-8 mRNA expression induced by A2E [4] [%]	change of NF-κB transactivation induced by A2E [5] [%]	inhibition of RXR transactivation induced by A2E [6]	change of NF-κB transactivation induced by A2E [7] [%]	inhibition of RXR transactivation induced by A2E [8]
COC1CCCN(C(=O)/C=C/C(C)=C/C=C/C(C)=C/C=C/C=C(C)/C=C/C=C(C)\C=C\C(=O)O)C1 (stereo not drawn) [BIO203]	inhibited	−104.8	slightly inhibited	−84.8	−86.8	−69.4	did not inhibit		
CC(=C/C=C/C(C)=C/C=C/C=C(C)/C=C/C=C(C)/C=C/C(=O)O)/C=C/C(=O)O [norbixin, 9′-cis-norbixin]								−73	significantly inhibited
